In patent publication US7737182B2, “Pharmaceuticals for xerosis” (Taisho Pharmaceutical Co., Ltd., priority 2001, dated 2010):

Legend:
[1] = biological target: T1, thromboxane (TP) receptor (Homo sapiens, UniProt P21731); test: Human TP antagonistic action: [3H]SQ29548 binding to human washed platelets
T1 construct: endogenous in cells; host or cells: human washed platelets
T1 sequence (P21731 1-343): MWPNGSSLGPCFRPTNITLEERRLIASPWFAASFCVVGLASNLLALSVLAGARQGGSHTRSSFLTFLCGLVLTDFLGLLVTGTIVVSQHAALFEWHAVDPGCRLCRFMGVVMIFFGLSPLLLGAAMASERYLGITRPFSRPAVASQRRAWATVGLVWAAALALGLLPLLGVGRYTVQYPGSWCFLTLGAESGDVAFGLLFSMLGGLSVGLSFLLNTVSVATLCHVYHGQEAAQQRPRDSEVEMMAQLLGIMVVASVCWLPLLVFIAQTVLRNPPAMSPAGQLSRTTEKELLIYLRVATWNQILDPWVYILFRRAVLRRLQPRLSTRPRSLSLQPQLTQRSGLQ
Method: (C) The effect of the active ingredient of the present invention (compound No. 7) on a thromboxane (TP) receptor was measured as compared with the thromboxane agonist U44069 as a positive control drug.
The antagonistic action of the test drug on the [^3H]SQ29548 binding to human washed platelets was investigated on the basis of a documented method (J. Pharmacol. Exp. Ther., vol. 245, pp. 786-792, 1988).

[2] = tested on: NC mice induced to manifest dermatitis; test: Dermatitis score in dermatitis manifesting NC mouse models (Test Example 2); format: in vivo; conditions: 0.01% in 100% ethanol, 200 μl on dorsal back, seven times a week for 4 weeks
Method: By suitably modifying a method known to the skilled artisan (Jpn. J. Pharmacol. 76, 175-183 (1998) Jun Hiroi, et al. Effects of Tacrolimus Hydrate (FK-506) Ointment on Spontaneous Dermatitis in NC/Nga Mice), the following test was conducted in order to confirm the antipruritic effect of compounds of the invention.
Animals: Four-week old SPF NC mice (male) were purchased from Japan SLC; right after their arrival, the SPF NC mice were kept together with dermatitis manifesting male NC mice (older than 20 weeks) for 2 weeks under the following conditions so as to induce itch-evoked scratching behavior. […]
Drug administration: To the dorsal backs of the 20-wk NC mice that were induced to manifest dermatitis as the result of cohabitation with the spontaneous dermatitis manifesting NC mice, 100% ethanol, compound No. 7 (0.01%) dissolved in 100% ethanol or tacrolimus (0.1%) dissolved in 100% ethanol was applied from an Eppendorf pipette in 200-μl doses seven times a week for a period of 4 weeks. […] Dermatitis score: Dermatitic symptoms were observed and measured once a week. […]

BALB/c male mice = test: Mouse skin's barrier function, treatment test, TEWL (Test Example 5); format: in vivo; conditions: barrier destroyed with acetone/diethyl ether; 0.01% in ethanol, 100 μL, once a day for 2 days
Method: Six-week-old BALB/c male mice in groups of eight were shaven in a rostral dorsolateral area of 4 cm^2 (2 cm×2 cm) with electric clippers and the shaven area was covered for 60 seconds with an absorbent cotton (2 cm×2 cm) impregnated with a 1:1 liquid mixture of acetone and diethyl ether. This treatment for destroying the skin's barrier function was performed for 3 consecutive days on once-a-day basis. Starting on the day next to completion of the treatment for barrier destruction at day 3, a solvent (ethanol, 100 μL) or a drug dissolved in the solvent (compound No. 7, PGD2, PGF2α, or PGE1, all being at 0.01% in an amount of 100 μL) was applied to the barrier destroyed site for 2 days on once-a-day basis. On the day next to the second application of the solvent or drug, the transepidermal water loss (TEWL) at the same site was measured with Tewameter (TM210 of Courage & Khazawa, Germany) to evaluate the drug's action.

guinea pig platelets = test: Suppression of ADP-induced aggregation of guinea pig platelets; format: cell-based; conditions: Cavia porcellus; guinea pig platelet-rich plasma, ADP (3 μM)
Method: Ten-week-old Hartley male guinea pigs were anesthetized with pentobarbital (30 mg/kg, i.p. injected) and a total of 20 mL of blood was sampled into a syringe containing 2.0 mL of 3.8% sodium citrate. The blood was immediately centrifuged at 900 rpm for 10 minutes at 20° C. to recover the supernatant PRP. By further centrifugation at 3000 rpm for 10 minutes at 20° C., the supernatant PPP was recovered. The platelet count of PRP was diluted with PPP to 30×10^4 platelets/μL for subsequent use.
For platelet aggregation measurement, a platelet aggregation measuring instrument (PAM-8C) was employed. To 274 μL of PRP, 1 μL of a 0.287-95.7 nM test drug solution in ethanol was added and the mixture was incubated at 37° C. for 3 minutes with stirring at 1000 rpm. After the incubation, 25 μL of ADP (3 μM) was added to induce platelet aggregation and a maximum percent aggregation for 5 minutes was measured.
The percent suppression of aggregation by each test drug was calculated from the maximum percent aggregation by the test drug as relative to the maximum percent aggregation by ethanol instead of the test drug solution and IC50 values were determined from the constructed dose-response curve.

human platelets = test: Suppression of ADP-induced aggregation of human platelets; format: cell-based; conditions: human platelet-rich plasma, ADP (3 μM), Born method
Method: (A) Using the active ingredient of the present invention (compound No. 7) and PGD2 as a control for comparison, prostaglandin D receptor binding selectivity was determined with reference to the platelet aggregation suppressing action as the prostaglandin D receptor agonist action. 1. Human Platelet Aggregation Suppressing Action Suppression of ADP-Induced Aggregation of Human Platelets
The test was performed on purchased platelet-rich plasma (PRP) (6×10^8 platelets/mL) and platelet aggregation was measured based on the Born method (Nature, vol. 194, p. 927, 1962). To 100 μL of PRP, 5 μL of a 1 nM-3 μM test drug solution in ethanol was added and the mixture was incubated at 37° C. for 1 minute with stirring at 1000 rpm. To the resulting mixture, 5 μL of an aggregation inducer [ADP (3 μM)] was added to induce platelet aggregation and a maximum percent aggregation (a maximum change in light transmittance that occurred within 5 minutes after the induction of platelet aggregation) was determined by an aggregometer. The percent suppression of aggregation by each test drug was calculated from the maximum percent aggregation by the test drug as relative to the maximum percent aggregation by ethanol instead of the test drug solution and IC50 values were determined from the constructed dose-response curve.

Q: Which inhibition at 1 µM ([1]; 1 μM) does the source give for `O=C(O)CSCCCC[C@@H]1[C@@H](C#C[C@@H](O)C2CCCCC2)[C@H](O)C[C@H]1Cl` [Compound No. 7] here?
A: 7%

Q: And the inhibition at 10 µM ([1]; concentration of 10 μM)?
A: 28%

Q: And the “dermatitis score suppressing action compared to the vehicle group” value [2]?
A: significant dermatitis score suppressing action

Q: What about the “transepidermal water loss (TEWL) compared to the solvent-applied control group” value (BALB/c male mice) of the same molecule?
A: significant decrease in TEWL

Q: What about the IC50 (guinea pig platelets) of the same molecule?
A: 6.2 ± 2.3 nM

Q: What about the IC50 (human platelets) of the same molecule?
A: 4.27 nM
